Reference: patent US11274332B2, “Methods of administering 3,4-diaminopyridine” (SERB SA, priority 2011, dated 2022)

Test: Food-effect crossover study, adverse events after single 20 mg amifampridine phosphate in healthy subjects (Examples 10, 11)
Type: in vivo
Protocol: This was a randomized, open-label, 2-treatment, 2-period crossover study with 44 completed subjects to assess the safety, tolerability, and the effect of food on the relative bioavailability of a single dose of amifampridine phosphate.
Safety was evaluated for all subjects who take at least one dose of 3,4-DAP. Safety was evaluated by recording the incidence of adverse events (AEs), physical examination, vital signs, concomitant medications, clinical laboratory assessments, and 12-lead electrocardiogram (ECG).
Analysis for the following safety parameters was carried out on the Safety Population: AEs which included all AEs, AEs by severity, drug-related AEs, deaths, SAEs, AEs leading to study discontinuation, and most frequent AEs, standard clinical laboratory tests, vital signs, ECG measurements, routine physical examinations, and prior and concomitant medications. The cut-off for frequency of AEs reported was determined based on the data. No formal statistical testing was performed for the safety analyses; only descriptive statistics were provided. Appropriate descriptive statistics for the safety data were determined using SAS Version 9.2.
AEs were coded according to the Medical Dictionary for Regulatory Activities (MedDRA; Version 13.0). […] The occurrence of AEs was assessed continuously from the time the subject signed the VID and consent. The reporting period for non-serious AEs was from the first dose to the final study visit. The investigator determined the severity of each event and the relationship of an AE to the IP and recorded it on the source documents and AE CRF. The nature, time of onset, duration, severity, and relationship to study drug was documented, including documentation of investigator assessment and review. All events were assessed to determine if the AE was serious.
The Investigator determined the severity of each event and the event was recorded on the source documents and AE CRF. A coding of “mild” meant there was no limitation of usual activities, “moderate” meant there was some limitation of usual activities, “severe” meant there was an inability to carry out usual activities.
The reporting period for AEs that met the criteria of an SAE began from the time of signing the VID and consent form through follow-up or early termination. […] Clinical Laboratory Assessments

Nc1ccncc1N.O=P(O)(O)O [amifampridine phosphate, 3,4-diaminopyridine phosphate]
13%: Nausea, drug-related AE: % of subjects (Female N=16) | Gastrointestinal Disorders Total, drug-related AE: % of subjects (Male N=31) | Hypoaesthesia Oral, drug-related AE: % of subjects (Male N=31)
13: Paraesthesia Oral, drug-related AE: subjects (Male N=31)
63%: Nervous System Disorders Total, drug-related AE: % of subjects (Female N=16)
58: All treatment emergent AEs, Total: events (Male N=31)
0: Hypoaesthesia Facial, drug-related AE: subjects (Female N=16) | Possibly or probably related AEs, Severe: subjects (Female N=16) | Serious adverse events: subjects (Female N=16) | Skin and Subcutaneous Tissue Disorders Total, drug-related AE: subjects (Female N=16) | Abdominal Tenderness, drug-related AE: subjects (Male N=31) | All treatment emergent AEs, Moderate: subjects (Male N=31) | Constipation, drug-related AE: subjects (Male N=31) | Diarrhoea, drug-related AE: subjects (Male N=31) | Flushing, drug-related AE: subjects (Male N=31)
10: Nervous System Disorders Total, drug-related AE: subjects (Female N=16)
6%: Hypoaesthesia Oral, drug-related AE: % of subjects (Female N=16) | Hypoaesthesia, drug-related AE: % of subjects (Female N=16) | Possibly or probably related AEs, Moderate: % of subjects (Female N=16) | Vascular Disorders Total, drug-related AE: % of subjects (Female N=16) | Dysgeusia, drug-related AE: % of subjects (Male N=31) | Fatigue, drug-related AE: % of subjects (Male N=31) | Headache, drug-related AE: % of subjects (Male N=31) | Nausea, drug-related AE: % of subjects (Male N=31)
18: All treatment emergent AEs, Mild: subjects (Male N=31) | Paraesthesia Oral, drug-related AE: events (Male N=31)
4: Gastrointestinal Disorders Total, drug-related AE: events (Male N=31) | Gastrointestinal Disorders Total, drug-related AE: subjects (Male N=31) | Hypoaesthesia Oral, drug-related AE: subjects (Male N=31)
42: Possibly or probably related AEs, Total: events (Female N=16)
2: General Disorders and Administration Site Conditions Total, drug-related AE: events (Female N=16) | General Disorders and Administration Site Conditions Total, drug-related AE: subjects (Female N=16) | Nausea, drug-related AE: events (Female N=16) | Nausea, drug-related AE: subjects (Female N=16) | Dizziness, drug-related AE: events (Male N=31) | Dysgeusia, drug-related AE: subjects (Male N=31) | Fatigue, drug-related AE: events (Male N=31) | Fatigue, drug-related AE: subjects (Male N=31) | Headache, drug-related AE: events (Male N=31) | Headache, drug-related AE: subjects (Male N=31) | Nausea, drug-related AE: events (Male N=31) | Nausea, drug-related AE: subjects (Male N=31)
19%: Headache, drug-related AE: % of subjects (Female N=16) | Paraesthesia, drug-related AE: % of subjects (Male N=31)
3%: Abdominal Pain Upper, drug-related AE: % of subjects (Male N=31) | Abdominal Pain, drug-related AE: % of subjects (Male N=31) | Acne, drug-related AE: % of subjects (Male N=31) | All treatment emergent AEs, Severe: % of subjects (Male N=31) | Discontinued due to adverse events: % of subjects (Male N=31) | Dizziness, drug-related AE: % of subjects (Male N=31) | Feeling Hot, drug-related AE: % of subjects (Male N=31) | Hypoaesthesia Facial, drug-related AE: % of subjects (Male N=31) | Hypoaesthesia, drug-related AE: % of subjects (Male N=31)
55%: Nervous System Disorders Total, drug-related AE: % of subjects (Male N=31)
41: Possibly or probably related AEs, Mild: events (Female N=16)
42%: Paraesthesia Oral, drug-related AE: % of subjects (Male N=31)
43: Nervous System Disorders Total, drug-related AE: events (Male N=31)
1: Hypoaesthesia Oral, drug-related AE: events (Female N=16) | Hypoaesthesia Oral, drug-related AE: subjects (Female N=16) | Hypoaesthesia, drug-related AE: events (Female N=16) | Hypoaesthesia, drug-related AE: subjects (Female N=16) | Possibly or probably related AEs, Moderate: events (Female N=16) | Possibly or probably related AEs, Moderate: subjects (Female N=16) | Vascular Disorders Total, drug-related AE: events (Female N=16) | Vascular Disorders Total, drug-related AE: subjects (Female N=16) | Abdominal Pain Upper, drug-related AE: events (Male N=31) | Abdominal Pain Upper, drug-related AE: subjects (Male N=31) | Abdominal Pain, drug-related AE: events (Male N=31) | Abdominal Pain, drug-related AE: subjects (Male N=31) | Acne, drug-related AE: events (Male N=31) | Acne, drug-related AE: subjects (Male N=31) | All treatment emergent AEs, Severe: events (Male N=31) | All treatment emergent AEs, Severe: subjects (Male N=31) | Discontinued due to adverse events: events (Male N=31) | Discontinued due to adverse events: subjects (Male N=31) | Dizziness, drug-related AE: subjects (Male N=31) | Feeling Hot, drug-related AE: events (Male N=31) | Feeling Hot, drug-related AE: subjects (Male N=31) | Hypoaesthesia Facial, drug-related AE: events (Male N=31) | Hypoaesthesia Facial, drug-related AE: subjects (Male N=31) | Hypoaesthesia, drug-related AE: events (Male N=31) | Hypoaesthesia, drug-related AE: subjects (Male N=31)
44%: Paraesthesia Oral, drug-related AE: % of subjects (Female N=16)
(0%) [0]: Hypoaesthesia Facial, drug-related AE: % of subjects (Female N=16) | Hypoaesthesia Facial, drug-related AE: events (Female N=16) | Possibly or probably related AEs, Severe: % of subjects (Female N=16) | Possibly or probably related AEs, Severe: events (Female N=16) | Serious adverse events: % of subjects (Female N=16) | Serious adverse events: events (Female N=16) | Skin and Subcutaneous Tissue Disorders Total, drug-related AE: % of subjects (Female N=16) | Skin and Subcutaneous Tissue Disorders Total, drug-related AE: events (Female N=16) | Abdominal Tenderness, drug-related AE: % of subjects (Male N=31) | Abdominal Tenderness, drug-related AE: events (Male N=31) | All treatment emergent AEs, Moderate: % of subjects (Male N=31) | All treatment emergent AEs, Moderate: events (Male N=31) | Constipation, drug-related AE: % of subjects (Male N=31) | Constipation, drug-related AE: events (Male N=31) | Diarrhoea, drug-related AE: % of subjects (Male N=31) | Diarrhoea, drug-related AE: events (Male N=31) | Flushing, drug-related AE: % of subjects (Male N=31) | Flushing, drug-related AE: events (Male N=31)
11: Paraesthesia, drug-related AE: events (Male N=31)
3: Headache, drug-related AE: events (Female N=16) | Headache, drug-related AE: subjects (Female N=16) | Dysgeusia, drug-related AE: events (Male N=31) | General Disorders and Administration Site Conditions Total, drug-related AE: events (Male N=31) | General Disorders and Administration Site Conditions Total, drug-related AE: subjects (Male N=31)
9: Paraesthesia, drug-related AE: events (Female N=16)
57: All treatment emergent AEs, Mild: events (Male N=31)
17: Nervous System Disorders Total, drug-related AE: subjects (Male N=31)
6: Paraesthesia, drug-related AE: subjects (Female N=16)
19: All treatment emergent AEs, Total: subjects (Male N=31)
12: Paraesthesia Oral, drug-related AE: events (Female N=16) | Possibly or probably related AEs, Mild: subjects (Female N=16) | Possibly or probably related AEs, Total: subjects (Female N=16)
7: Paraesthesia Oral, drug-related AE: subjects (Female N=16)
38%: Paraesthesia, drug-related AE: % of subjects (Female N=16)
31: Nervous System Disorders Total, drug-related AE: events (Female N=16)
58%: All treatment emergent AEs, Mild: % of subjects (Male N=31)
5: Hypoaesthesia Oral, drug-related AE: events (Male N=31)
75%: Possibly or probably related AEs, Mild: % of subjects (Female N=16) | Possibly or probably related AEs, Total: % of subjects (Female N=16)
10%: General Disorders and Administration Site Conditions Total, drug-related AE: % of subjects (Male N=31)
